According to patent US6214969A, “Luteinizing hormone releasing hormone analogs with cytotoxic moiety” (The Administrators of the Tulane Educational Fund, priority 1993, dated 2001):

Tests used:
[1] = tested on: ovulation in 4-day cycling rats; test: In vivo antiovulatory activity in 4-day-cycling rats; settings: 10 μg per rat
Method: This activity of the peptides is determined in 4-day-cycling rats as described [A. Corbin and C. W. Beattie, Endocr. Res. Commun., 2, 1-23 (1975)].
(§1) Table 2 presents the antiovulatory activity and human breast cancer cell membrane receptor binding affinity of the claimed compounds having LHRH-inhibiting properties. The inhibitory action was determined in vivo, in 4-day cycling rats as described [A. Corbin and C. W. Beattie, Endocr. Res. Commun., 2, 1-23 (1975)].

[2] = molecular target: T1, membrane receptors of human breast cancer cells (LHRH receptors) (Homo sapiens, UniProt P30968); test: Receptor binding affinity for human breast cancer cell membranes, 125I-[D-Trp]6 LHRH as labelled ligand; settings: 125I-[D-Trp]6 LHRH ligand, NB = no binding
T1 construct: from tissue
T1 sequence (P30968 1-328): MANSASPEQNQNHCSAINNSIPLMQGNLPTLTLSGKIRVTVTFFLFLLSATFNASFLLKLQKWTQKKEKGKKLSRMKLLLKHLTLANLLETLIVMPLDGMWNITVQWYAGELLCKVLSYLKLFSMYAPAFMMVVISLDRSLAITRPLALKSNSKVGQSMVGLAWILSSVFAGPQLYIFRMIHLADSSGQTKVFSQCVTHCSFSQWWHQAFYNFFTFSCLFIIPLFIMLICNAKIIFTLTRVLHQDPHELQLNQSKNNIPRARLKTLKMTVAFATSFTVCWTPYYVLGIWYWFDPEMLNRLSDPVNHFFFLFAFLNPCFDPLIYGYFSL
Method: Affinity for peptides to human breast cancer cell membranes is determined by using labelled LHRH and [D-Trp^6 ]LHRH. The assay is carried out similarly to that described by T. Kadar et al., Proc. Natl. Acad. Sci. USA, 85, 890-894 (1988) and M. Fekete et al., Endocrinology, 124, 946-955 (1989).
as §1

[3] = tested on: MCF-7 human breast cancer cell line; test: Inhibition of 3H-thymidine incorporation into DNA, MCF-7; type: cell-based
Method: Ability of peptides of Formula I to inhibit incorporation of [^3 H]thymidine into DNA of monolayer cultures the human mammary tumor cell line MCF-7 is assayed as described [V. K. Sondak et al., Cancer Research, 44, 1725-1728 (1984); F. Holzel et al., J. Cancer Res. Clin. Oncol. 109, 217-226 (1985); M. Albert et al., J. Cancer Res. Clin. Oncol. 109, 210-216 (1985)].
(§2) 200,000 cells in 200 μl of […]+2% CFBS were incubated with 1, 5 or 10 μg cytotoxic analogs for 3 hours or 23 hours then 1 μCi ^3 H-thymidine added and incubated an additional 60 min. DNA extracted with 1 N perchloric acid and the radioactivity measured.

[4] = tested on: dispersed rat pituitary cells (LH release); test: LH-releasing activity in superfused rat pituitary cell system; type: cell-based; settings: Table 1; compared to that produced by 3 nM LH-RH; peptide infused 3 min
Description: B. Greenstein, Harwood Academic Publishers, London, (1990)].

MDA-MB-231 Cell Line = test: Inhibition of 3H-thymidine incorporation into DNA, MDA-MB-231; type: cell-based, human
Method: as §2

T47D Cell line = test: Inhibition of 3H-thymidine incorporation into DNA, T47D; type: cell-based, human
Method: as §2

SkBr-3 Cell line = test: Inhibition of 3H-thymidine incorporation into DNA, SkBr-3; type: cell-based, human
Method: as §2

[5] = tested on: human mammary cell line MDA-MB-231; settings: 10 μg dose; cited from earlier work

Ac-D-Nal(2)-D-Phe(4Cl)-D-Trp-Ser-Tyr-D-Lys(D-Mel)-Leu-Arg-Pro-D-Ala-NH. sub.2 [compound 15]
% Ovulation Blocked [1]: 100% | Affinity Constant Ka1 ([2]; Table 2 (antagonists)): 3.58 nM⁻¹

pGlu-His-Trp-Ser-Tyr-D-Lys[Ahx(MTX)]-Leu-Arg-Pro-Gly-NH2 [compound 34]
% Inhibition at 24 hrs ([3]; dose 1 μg/ml): 16% | % Inhibition at 24 hrs ([3]; dose 10 μg/ml): 21% | Relative Activity (LH-releasing activity) [4]: 6.7 | Affinity Constant Ka1 ([2]; Table 1 (agonists)): 4.42 nM⁻¹

Ac-D-Nal(2)-D-Phe(4Cl)-D-Trp-Ser-Arg-D-Lys(D-Mel)-Leu-Arg-Pro-D-Ala-NH. sub.2 [compound 19]
% Inhibition at 24 hrs ([3]; dose 1 μg/ml): 34% | % Inhibition at 24 hrs ([3]; dose 10 μg/ml): 49% | % Ovulation Blocked [1]: 40% | Affinity Constant Ka2 ([2]; Table 2 (antagonists)): 32.54 µM⁻¹

Ac-D-Nal(2)-D-Phe(4Cl)-D-Pal(3)-Ser-Arg-D-Lys(MTX)-Leu-Arg-Pro-D-Ala-NH. sub.2 [compound 29]
% Inhibition at 24 hrs ([3]; dose 1 μg/ml): 10% | % Inhibition at 24 hrs ([3]; dose 10 μg/ml): 16% | % Ovulation Blocked [1]: 100% | Affinity Constant Ka1 ([2]; Table 2 (antagonists)): 0.44 nM⁻¹ | Affinity Constant Ka2 ([2]; Table 2 (antagonists)): 1.04 µM⁻¹

pGlu-His-Trp-Ser-Tyr-D-Lys(MTX)-Leu-Arg-Pro-Gly-NH2 [4A]
Affinity Constant Ka1 ([2]; Table 1 (agonists)): 5.42 nM⁻¹ | Affinity Constant Ka2 ([2]; Table 1 (agonists)): 1.59 µM⁻¹

pGlu-His-Trp-Ser-Tyr-D-Lys(MTX)-Leu-Arg-Pro-Gly-NH2 [4B]
Affinity Constant Ka1 ([2]; Table 1 (agonists)): 0.63 nM⁻¹

pGlu-His-Trp-Ser-Tyr-D-Lys(MTX)-Leu-Arg-Pro-Gly-NH2 [compound 4]
% Inhibition at 4 hrs (MDA-MB-231 Cell Line; dose 1 μg/ml): 23% | % Inhibition at 24 hrs (MDA-MB-231 Cell Line; dose 1 μg/ml): 0% | % Inhibition at 4 hrs (MDA-MB-231 Cell Line; dose 10 μg/ml): 31% | % Inhibition at 24 hrs (MDA-MB-231 Cell Line; dose 10 μg/ml): 8% | % Inhibition at 4 hrs (T47D Cell line; dose 1 μg/ml): 38% | % Inhibition at 24 hrs (T47D Cell line; dose 1 μg/ml): 26% | % Inhibition at 4 hrs (T47D Cell line; dose 10 μg/ml): 54% | % Inhibition at 24 hrs (T47D Cell line; dose 10 μg/ml): 41% | % Inhibition at 4 hrs (SkBr-3 Cell line; dose 1 μg/ml): 21% | % Inhibition at 24 hrs (SkBr-3 Cell line; dose 1 μg/ml): 16% | % Inhibition at 4 hrs (SkBr-3 Cell line; dose 10 μg/ml): 36% | % Inhibition at 24 hrs (SkBr-3 Cell line; dose 10 μg/ml): 10%

pGlu-His-Trp-Ser-Tyr-D-Orn(MTX)-Leu-Arg-Pro-Gly-NH2 [compound 11]
% Inhibition at 4 hrs ([3]; dose 1 μg/ml): 34% | % Inhibition at 24 hrs ([3]; dose 1 μg/ml): 7% | % Inhibition at 4 hrs ([3]; dose 10 μg/ml): 29% | % Inhibition at 24 hrs ([3]; dose 10 μg/ml): 3%

pGlu-His-Trp-Ser-Tyr-D-Lys[Ahx-A2 bu(SAL)2 (Cu)]-Leu-Arg-Pro-Gly-NH2
inhibition of [3H]thymidine incorporation into DNA [5]: 87%

Ac-D-Nal(2)-D-Phe(4Cl)-D-Trp-Ser-Tyr-D-Lys(MTX)-Leu-Arg-Pro-D-Ala-NH2 [compound 18]
Affinity Constant Ka1 ([2]; Table 2 (antagonists)): 3.58 nM⁻¹ | Affinity Constant Ka2 ([2]; Table 2 (antagonists)): 1.07 µM⁻¹

pGlu-His-Trp-Ser-Tyr-D-Lys(Glt-DOX)-Leu-Arg-Pro-Gly-NH2 [compound 33]
% Inhibition at 4 hrs ([3]; dose 1 μg/ml): 19% | % Inhibition at 24 hrs ([3]; dose 1 μg/ml): 0% | % Inhibition at 4 hrs ([3]; dose 5 μg/ml): 34% | % Inhibition at 24 hrs ([3]; dose 5 μg/ml): 61% | % Inhibition at 4 hrs (MDA-MB-231 Cell Line; dose 1 μg/ml): 20% | % Inhibition at 24 hrs (MDA-MB-231 Cell Line; dose 1 μg/ml): 0% | % Inhibition at 4 hrs (MDA-MB-231 Cell Line; dose 10 μg/ml): 9% | % Inhibition at 24 hrs (MDA-MB-231 Cell Line; dose 10 μg/ml): 0% | % Inhibition at 4 hrs (T47D Cell line; dose 1 μg/ml): 32% | % Inhibition at 24 hrs (T47D Cell line; dose 1 μg/ml): 11% | % Inhibition at 4 hrs (T47D Cell line; dose 10 μg/ml): 44% | % Inhibition at 24 hrs (T47D Cell line; dose 10 μg/ml): 10% | Relative Activity (LH-releasing activity) [4]: 12 | Affinity Constant Ka2 ([2]; Table 1 (agonists)): 14.4 µM⁻¹ | % Inhibition at 4 hrs (SkBr-3 Cell line; dose 1 μg/ml): 27% | % Inhibition at 24 hrs (SkBr-3 Cell line; dose 1 μg/ml): 0% | % Inhibition at 4 hrs (SkBr-3 Cell line; dose 10 μg/ml): 24% | % Inhibition at 24 hrs (SkBr-3 Cell line; dose 10 μg/ml): 14%
